Test results published in patent publication US20220281848A1, “PYRAZOLE-SUBSTITUTED PYRROLIDINONES AS HERBICIDES” (FMC Corporation, priority 2019, published 2022).

System: plants
Assay: Test D pre-emergence, other plants of Tables D1 and D3
Format: in vivo
Conditions: pre-emergence, 100=total damage, 0=no damage
How it was run: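 Damage was rated visually from 0 (none) to 100 (total), at 20 DAA for pre-emergence and 15 d for post-emergence. Plants grew from safener-treated seed in a glasshouse at 24/18° C. or 20/16° C. day/night, 65% humidity, watered twice daily.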

Structure (SMILES): CN1CC(c2cc(C(F)(F)F)n(C)n2)C(C(=O)Nc2cccc(F)c2C(F)(F)F)C1=O (racemic) [Compound 19]
- damage to plant, ALOMY (rate 15, 20 DAA): 0
- damage to plant, AVEFA (rate 15, 20 DAA): 0
- damage to plant, BEAVA (rate 15, 20 DAA): 0
- damage to plant, BROTE (rate 15, 20 DAA): 0
- damage to plant, BRSNN (rate 15, 20 DAA): 0
- damage to plant, CHEAL (rate 15, 20 DAA): 0
- damage to plant, GALAP (rate 15, 20 DAA): 0
- damage to plant, HORVW (rate 15, 20 DAA): 0
- damage to plant, KCHSC (rate 15, 20 DAA): 0
- damage to plant, LOLPE (rate 15, 20 DAA): 0
- damage to plant, POAAN (rate 15, 20 DAA): 0
- damage to plant, POLCO (rate 15, 20 DAA): 0
- damage to plant, SINAR (rate 15, 20 DAA): 0
- damage to plant, STEME (rate 15, 20 DAA): 0
- damage to plant, VERPE (rate 15, 20 DAA): 0
- damage to plant, ALOMY (rate 30, 20 DAA): 0
- damage to plant, AVEFA (rate 30, 20 DAA): 0
- damage to plant, BEAVA (rate 30, 20 DAA): 0
- damage to plant, BROTE (rate 30, 20 DAA): 0
- damage to plant, BRSNN (rate 30, 20 DAA): 0
- damage to plant, CHEAL (rate 30, 20 DAA): 0
- damage to plant, GALAP (rate 30, 20 DAA): 0
- damage to plant, HORVW (rate 30, 20 DAA): 0
- damage to plant, KCHSC (rate 30, 20 DAA): 0
- damage to plant, LOLPE (rate 30, 20 DAA): 0
- damage to plant, POAAN (rate 30, 20 DAA): 0
- damage to plant, POLCO (rate 30, 20 DAA): 0
- damage to plant, SINAR (rate 30, 20 DAA): 0
- damage to plant, STEME (rate 30, 20 DAA): 0
- damage to plant, VERPE (rate 30, 20 DAA): 0
- damage to plant, ALOMY (rate 60, 20 DAA): 0
- damage to plant, AVEFA (rate 60, 20 DAA): 0
- damage to plant, BEAVA (rate 60, 20 DAA): 0
- damage to plant, BROTE (rate 60, 20 DAA): 0
- damage to plant, BRSNN (rate 60, 20 DAA): 0
- damage to plant, CHEAL (rate 60, 20 DAA): 0
- damage to plant, GALAP (rate 60, 20 DAA): 0
- damage to plant, HORVW (rate 60, 20 DAA): 0
- damage to plant, KCHSC (rate 60, 20 DAA): 0
- damage to plant, LOLPE (rate 60, 20 DAA): 0
- damage to plant, POAAN (rate 60, 20 DAA): 10
- damage to plant, POLCO (rate 60, 20 DAA): 0
- damage to plant, SINAR (rate 60, 20 DAA): 0
- damage to plant, STEME (rate 60, 20 DAA): 0
- damage to plant, VERPE (rate 60, 20 DAA): 0
- damage to plant, ALOMY (rate 130, 20 DAA): 0
- damage to plant, AVEFA (rate 130, 20 DAA): 0
- damage to plant, BEAVA (rate 130, 20 DAA): 0
- damage to plant, BROTE (rate 130, 20 DAA): 0
- damage to plant, BRSNN (rate 130, 20 DAA): 0
- damage to plant, CHEAL (rate 130, 20 DAA): 0
- damage to plant, GALAP (rate 130, 20 DAA): 0
- damage to plant, HORVW (rate 130, 20 DAA): 0
- damage to plant, KCHSC (rate 130, 20 DAA): 0
- damage to plant, LOLPE (rate 130, 20 DAA): 0
- damage to plant, POAAN (rate 130, 20 DAA): 20
- damage to plant, POLCO (rate 130, 20 DAA): 0
- damage to plant, SINAR (rate 130, 20 DAA): 0
- damage to plant, STEME (rate 130, 20 DAA): 0
- damage to plant, VERPE (rate 130, 20 DAA): 0
- damage to plant, ALOMY (rate 250, 20 DAA): 20
- damage to plant, AVEFA (rate 250, 20 DAA): 10
- damage to plant, BEAVA (rate 250, 20 DAA): 0
- damage to plant, BROTE (rate 250, 20 DAA): 10
- damage to plant, BRSNN (rate 250, 20 DAA): 0
- damage to plant, CHEAL (rate 250, 20 DAA): 10
- damage to plant, GALAP (rate 250, 20 DAA): 0
- damage to plant, HORVW (rate 250, 20 DAA): 0
- damage to plant, KCHSC (rate 250, 20 DAA): 0
- damage to plant, LOLPE (rate 250, 20 DAA): 30
- damage to plant, POAAN (rate 250, 20 DAA): 80
- damage to plant, POLCO (rate 250, 20 DAA): 0
- damage to plant, SINAR (rate 250, 20 DAA): 0
- damage to plant, STEME (rate 250, 20 DAA): 10
- damage to plant, VERPE (rate 250, 20 DAA): 60
- damage to plant, ALOMY (rate 500, 20 DAA): 70
- damage to plant, AVEFA (rate 500, 20 DAA): 70
- damage to plant, BEAVA (rate 500, 20 DAA): 0
- damage to plant, BROTE (rate 500, 20 DAA): 30
- damage to plant, BRSNN (rate 500, 20 DAA): 20
- damage to plant, CHEAL (rate 500, 20 DAA): 20
- damage to plant, GALAP (rate 500, 20 DAA): 0
- damage to plant, HORVW (rate 500, 20 DAA): 20
- damage to plant, KCHSC (rate 500, 20 DAA): 0
- damage to plant, LOLPE (rate 500, 20 DAA): 80
- damage to plant, POAAN (rate 500, 20 DAA): 80
- damage to plant, POLCO (rate 500, 20 DAA): 10
- damage to plant, SINAR (rate 500, 20 DAA): 0
- damage to plant, STEME (rate 500, 20 DAA): 60
- damage to plant, VERPE (rate 500, 20 DAA): 70
